Data reported in ChEMBL document CHEMBL4842386, “Discovery of Reldesemtiv, a Fast Skeletal Muscle Troponin Activator for the Treatment of Impaired Muscle Function” (J Med Chem, 2021).
In brackets after ≈: the same amount, converted by molar mass.

Assays:
[1] = tested on: Psoas muscle; experiment: Activation of fast twitch skeletal muscle in rabbit psoas muscle myofibrils by measuring increase in myofibril ATPase activity at 25% calcium concentration; format: functional; settings: Oryctolagus cuniculus
[2] = tested on: Psoas muscle; experiment: Increase in psoas muscle force in rabbit skinned single fiber preparation at a calcium concentration that produces a force increase that is 25% of the maximum response in a control preparation by skinned fast skeletal muscle fiber assay; format: functional; settings: Oryctolagus cuniculus
[3] = Thermodynamic solubility of the compound; format: physicochemical; settings: read-out: Therm_solubility
[4] = Metabolic stability in human liver microsomes assessed as intrinsic clearance measured after 90 mins by HPLC/MS/MS analysis; format: ADME, Microsome; settings: read-out: CLH
[5] = molecular target: Voltage-gated inwardly rectifying potassium channel KCNH2 (Homo sapiens, UniProt Q12809); experiment: Inhibition of human ERG expressed in HEK293 cells at -80 mV holding potential by patch clamp assay; format: cell-based
Voltage-gated inwardly rectifying potassium channel KCNH2, sequence (Q12809 whole entry): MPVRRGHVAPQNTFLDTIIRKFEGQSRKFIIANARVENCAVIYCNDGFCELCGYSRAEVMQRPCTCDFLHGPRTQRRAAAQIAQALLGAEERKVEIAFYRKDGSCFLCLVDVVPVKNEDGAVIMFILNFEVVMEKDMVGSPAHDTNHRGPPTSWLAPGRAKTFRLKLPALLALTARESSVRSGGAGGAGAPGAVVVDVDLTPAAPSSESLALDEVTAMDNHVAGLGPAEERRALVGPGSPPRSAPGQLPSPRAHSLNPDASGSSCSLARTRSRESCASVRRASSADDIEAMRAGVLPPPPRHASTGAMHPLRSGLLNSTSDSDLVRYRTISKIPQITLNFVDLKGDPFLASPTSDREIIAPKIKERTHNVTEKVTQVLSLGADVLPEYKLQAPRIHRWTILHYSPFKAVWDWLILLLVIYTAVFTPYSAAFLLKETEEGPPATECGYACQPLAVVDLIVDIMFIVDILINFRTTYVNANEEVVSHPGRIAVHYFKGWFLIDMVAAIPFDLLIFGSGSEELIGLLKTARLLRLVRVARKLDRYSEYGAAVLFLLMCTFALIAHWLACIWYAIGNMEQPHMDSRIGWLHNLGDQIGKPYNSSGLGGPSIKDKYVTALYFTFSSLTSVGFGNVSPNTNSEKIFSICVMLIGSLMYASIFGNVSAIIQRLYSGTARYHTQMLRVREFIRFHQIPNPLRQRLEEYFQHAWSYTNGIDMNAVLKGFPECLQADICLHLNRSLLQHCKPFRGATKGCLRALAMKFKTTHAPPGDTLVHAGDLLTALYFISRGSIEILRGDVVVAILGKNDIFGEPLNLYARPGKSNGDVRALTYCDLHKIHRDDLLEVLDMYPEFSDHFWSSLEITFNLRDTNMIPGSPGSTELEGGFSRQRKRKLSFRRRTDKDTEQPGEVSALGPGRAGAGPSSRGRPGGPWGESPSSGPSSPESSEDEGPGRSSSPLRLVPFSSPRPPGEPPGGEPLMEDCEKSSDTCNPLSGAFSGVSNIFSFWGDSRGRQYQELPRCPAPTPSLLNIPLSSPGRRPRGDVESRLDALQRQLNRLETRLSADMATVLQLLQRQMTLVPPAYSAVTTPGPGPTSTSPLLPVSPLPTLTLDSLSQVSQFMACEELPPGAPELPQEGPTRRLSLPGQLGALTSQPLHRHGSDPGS

Structure (SMILES)	EC40 [1]	EC30 [2]	solubility thermodynamic [3]	CLint scaled [4]	IC50 [5]
CC(C)(CNc1cnc(-c2cccc(C(N)=O)c2)nc1)c1ccc(F)cc1	3600 nM				
CC(CNc1nc(Cc2ccc(F)cc2)ns1)c1ccc(Cl)cc1 (configuration not stated)	1100 nM	16700 nM	< 27 µM		
CC(C)(CNc1nc(Cc2ccc(F)cc2)ns1)c1ccc(Cl)cc1	600 nM	7400 nM			
NC(=O)c1cccc(-c2ccc(NCC3(c4ccccn4)CCC3)nn2)c1	500 nM	900 nM		< 7 mL/min/kg	
CN(CC1(c2ccccn2)CCC1)c1ccc(-c2cccc(C(N)=O)c2)nn1	> 49000 nM				
CC(C)(CNc1ccc(-c2cccc(C(N)=O)c2)cn1)c1ccc(F)cc1	500 nM	1500 nM		7 mL/min/kg	
CC(C)(CNc1ccc(-c2cccc(C(N)=O)c2)nn1)c1ccc(F)cc1	1200 nM	3000 nM	86 µM (≈ 31.3 µg/mL)	8 mL/min/kg	
CN(C)C(=O)c1cnn(-c2ccc(NCC3(c4ncccc4F)CCC3)nn2)c1	20200 nM				
NC(=O)c1cnc(-c2ccc(NCC3(c4ncccc4F)CCC3)nn2)o1	3900 nM	5400 nM			
CC(C)(CNc1nc(-c2ccccc2)ns1)c1ccc(F)cc1	8900 nM				
NC(=O)c1cccc(-c2ccc(NCC3(c4ccc(F)cn4)CCC3)nn2)c1	3500 nM	2300 nM		< 7 mL/min/kg	
CC(C)CCNc1nc(Cc2ccc(F)cc2)ns1	> 49000 nM				
NC(=O)c1cnn(-c2cnc(NC[C@]3(c4ncccc4F)C[C@H](F)C3)nc2)c1	1200 nM	3300 nM		< 14 mL/min/kg	
NC(=O)c1cc(-c2ccc(NCC3(c4ncccc4F)CCC3)nn2)ncn1	4400 nM				
CN(C)C(=O)c1cccc(-c2nsc(NCC(C)(C)c3ccc(F)cc3)n2)c1	2900 nM	3100 nM			
NC(=O)c1cccc(-c2ccc(NCC3(c4ncccc4F)CCC3)nn2)c1	300 nM	500 nM		11 mL/min/kg	
NC(=O)c1cnc(-c2ccc(NCC3(c4ncccc4F)CCC3)nn2)s1	100 nM	400 nM			> 100000 nM
CC(C)(CNc1ccc(-c2cccc(C(N)=O)c2)nc1)c1ccc(F)cc1	300 nM				
NC(=O)c1ccn(-c2ccc(NCC3(c4ncccc4F)CCC3)nn2)n1	22700 nM				
CC(Cc1ccc(Cl)cc1)Nc1nc(Cc2ccc(F)cc2)ns1 (configuration not stated)	22100 nM				
CC(C)(CNc1nsc(-c2cccc(C(N)=O)c2)n1)c1ccc(F)cc1	500 nM	7100 nM			
